Source: patent US9828375B2, “4-position substituted pyrazolopyrimidine derivative, and use thereof in drug preparation” (Guangxi Wuzhou Pharmaceuticals (Group) Co., Ltd., priority 2012, dated 2017)
Like-named read-outs stand apart in the source and are kept apart here.

How the values were obtained:
[1] = tested on: human cervical carcinoma cell line HELA; experiment: In vitro tumor cell proliferation inhibition (MTT): HELA; type: cell-based; conditions: 72 hours
From the text: (§1) The purpose of the experiment was to test the inhibition activity of the compounds of the invention for in vitro human tumor cell proliferation by the methyl thiazolyl tetrazolium (MTT) colorimetry.
(§2) Main reagents: RPMI-1640, fetal bovine serum, pancreatin, etc. were purchased from Gibco BRL Company (Invitrogen Corporation, USA) and IMDM medium that was purchased from American Type Culture Collection (ATCC). Methyl thiazolyl tetrazolium (MTT) and dimethyl sulfoxide (DMSO) were products from Sigma Company (USA). Pyrazolopyrimidine derivatives were composed by the inventor. During in vitro experiment, 100% DMSO was prepared into 10 mM storage solution, the solution was stored in a refrigerator at −20° C. for future use, and was diluted to the required concentration with complete culture solution before use.
(§3) Cell line and culture: Human leukemia cell line MV4-11, Jurkat, K562, human thyrophyma cell line TT, human gastric carcinoma cell line MKN-45, human malignant melanoma cell lines A375 and A875, human pancreatic carcinoma cell line panc-1, human cervical carcinoma cell line HELA, human colorectal carcinoma cell line HCT116, etc. were purchased from American type culture collection and were preserved by this laboratory. All leukemia cell lines (except MV4-11), gastric carcinoma cell lines and thyrophyma cell lines were cultured in RPMI-1640 complete medium containing 10% fetal bovine serum, 100 U/mL penicillin and 100 μg/mL streptomycin at 37° C. in 5% CO2. The remaining cell lines were cultured in DMEM complete medium containing 10% fetal bovine serum (containing 20% MV4-11 cell), 100 U/mL penicillin and 100 µg/mL streptomycin at 37° C. in 5% CO2.
(§4) Cell suspension with cell concentration of 1-2×10^4/mL was adjusted with the complete cell medium and inoculated in a 96-well plate, with each well filled with 200 μl cell suspension that was cultured overnight. On the next day, supernatant was sucked and abandoned (supernatant was sucked upon centrifugation of suspension cells), and then cells were processed with test compounds at gradient concentrations respectively. Meanwhile, a negative control group free from drug and a solvent control group with equal volume were set, and the DMSO concentration was 0.1%. Each dose group was provided with three wells and cultured at 37° C. in 5% CO2. After 72 hours, 20 μl 5 mg/mL MTT reagent was added to each well, and cultured for another 2 to 4 hours, the supernatant was abandoned; 150 μL DMSO was added to each well again, vibrated and mixed evenly for 15 minutes; the absorbance (A) values (proportional to living cell amount) were determined with a microplate reader (λ=570 nm) and averaged. […] Experiment was repeated for 3 times at least. Experimental data were expressed with means, data statistics were tested by t, and P<0.05 means that difference has a statistical significance. The cell proliferation inhibition effects of all compounds as follows are expressed by IC50 or inhibition rate.

[2] = tested on: human colorectal carcinoma cell line HCT116; experiment: In vitro tumor cell proliferation inhibition (MTT): HCT116; type: cell-based
From the text: as §1, §2, §3, §4

[3] = tested on: human gastric carcinoma cell line MKN-45; experiment: In vitro tumor cell proliferation inhibition (MTT): MKN-45; type: cell-based
From the text: as §1, §2, §3, §4

[4] = tested on: human leukemia cell line K562; experiment: In vitro tumor cell proliferation inhibition (MTT): K562; type: cell-based
From the text: as §1, §2, §3, §4

[5] = tested on: human pancreatic carcinoma cell line panc-1; experiment: In vitro tumor cell proliferation inhibition (MTT): panc-1; type: cell-based
From the text: as §1, §2, §3, §4

[6] = tested on: human leukemia cell line Jurkat; experiment: In vitro tumor cell proliferation inhibition (MTT): Jurkat; type: cell-based; conditions: 72 hours
From the text: as §1, §2, §3, §4

[7] = tested on: human malignant melanoma cell line A375; experiment: In vitro tumor cell proliferation inhibition (MTT): A375; type: cell-based
From the text: as §1, §2, §3, §4

[8] = tested on: human malignant melanoma cell line A875; experiment: In vitro tumor cell proliferation inhibition (MTT): A875; type: cell-based
From the text: as §1, §2, §3, §4

[9] = tested on: human leukemia cell line MV4-11; experiment: In vitro tumor cell proliferation inhibition (MTT): MV4-11; type: cell-based
From the text: as §1, §2, §3, §4

[10] = tested on: human thyrophyma cell line TT; experiment: In vitro tumor cell proliferation inhibition (MTT): TT; type: cell-based
From the text: as §1, §2, §3, §4

[11] = tested on: human acute myeloid leukemia cell line MV4-11; experiment: In vivo anti-leukemia tumor experiment, NOD-SCID mice-subcutaneous MV4-11 model, tumors more than 2000 mm^3
From the text: The cell line used was human acute myeloid leukemia cell line MV4-11, with anti-leukemia drug Quizartinib (AC220) as a positive control.

[12] = Homo sapiens, HCT-116, 72 hours

SMILES | IC50 ([1]; Homo sapiens, HeLa) | IC50 ([9]; Homo sapiens, MV4-11, 72 h) | IC50 [2, 12] | IC50 ([3]; Homo sapiens, MKN-45, 72 hours) | IC50 ([4]; Homo sapiens, K562, 72 hours) | IC50 ([5]; Homo sapiens, PANC-1, 72 hours) | IC50 ([6]; Homo sapiens, Jurkat) | IC50 ([7]; Homo sapiens, A-375, 72 hours) | IC50 ([8]; Homo sapiens, A875, 72 hours) | IC50 ([10]; Homo sapiens, 72 h) | also measured
O=C(Nc1cccc(Oc2ncnc3[nH]ncc23)c1)Nc1cccc(C(F)(F)F)c1 [4a-41] |  |  |  |  |  |  |  |  |  |  | IC50 [1]: < 50 µM; IC50 ([2]; 72 hours, read-out: Proliferation inhibition activity (IC50) HCT 116): < 50 µM; IC50 ([3]; 72 hours): < 50 µM; IC50 ([4]; 72 hours): < 50 µM; IC50 ([5]; 72 hours): < 50 µM; IC50 [6]: < 50 µM; IC50 ([7]; 72 hours): < 50 µM; IC50 ([8]; 72 hours): < 50 µM; IC50 ([9]; 72 hours): 7820 nM; IC50 ([10]; 72 hours): < 50 µM
O=C(Nc1ccc(C(F)(F)F)cc1)Nc1cccc(Oc2ncnc3[nH]ncc23)c1 [4a-43] | < 50 µM | < 5000 nM | < 50 µM | < 50 µM | < 50 µM | < 50 µM | < 50 µM | < 50 µM | < 50 µM | 4.57 µM | 
CC(C)n1ncc2c(Oc3ccc(NC(=O)Nc4cc(C(C)(C)C)[nH]n4)cc3)ncnc21 [5a-7, 1-(5-tert-butyl-1H-pyrazol-3-yl)-3-(4-(1-isopropyl-(1H-pyrazolopyrimidine-4-yl)oxy)phenyl)urea] |  |  |  | < 50 µM |  | < 50 µM | < 50 µM | < 50 µM | < 50 µM | < 50 µM | 
CC(C)(C)c1cc(NC(=O)Nc2ccc(Oc3ncnc4[nH]ncc34)c(Cl)c2)no1 [4a-46, 1-(4-((1H-pyrazolopyrimidine-4-yl)oxy)-3-chlorphenyl)-3-(5-tert-butylisoxazol-3-yl)urea] | < 50 µM | 3 nM | < 10 µM | < 50 µM | 3 to 10 µM | 1 to 3 µM | 1 to 3 µM | < 10 µM | < 10 µM | 1 to 3 µM | 
O=C(Nc1ccc(Cl)c(C(F)(F)F)c1)Nc1ccc(Oc2ncnc3[nH]ncc23)cc1Cl [4a-55] |  | 54.2 nM | < 50 µM |  | < 50 µM | < 50 µM | < 50 µM |  |  |  | 
CN(C)CCCn1ncc2c(Oc3ccc(NC(=O)Nc4cc(C(C)(C)C)on4)cc3)ncnc21 [5a-6] | < 50 µM | 28 nM |  | < 50 µM |  |  | < 50 µM |  |  | 4.13 µM | 

Further compounds by falling IC50 ([9]; Homo sapiens, MV4-11, 72 h), results first:

IC50 ([1]; Homo sapiens, HeLa) | IC50 ([9]; Homo sapiens, MV4-11, 72 h) | IC50 [2, 12] | IC50 ([3]; Homo sapiens, MKN-45, 72 hours) | IC50 ([4]; Homo sapiens, K562, 72 hours) | IC50 ([5]; Homo sapiens, PANC-1, 72 hours) | IC50 ([6]; Homo sapiens, Jurkat) | IC50 ([7]; Homo sapiens, A-375, 72 hours) | IC50 ([8]; Homo sapiens, A875, 72 hours) | IC50 ([10]; Homo sapiens, 72 h) | SMILES | also measured
 | 1 nM | < 50 µM | 3 to 10 µM |  | 3 to 10 µM | 3 to 10 µM | 3 to 10 µM | 3 to 10 µM |  | Cn1nc(C(C)(C)C)cc1NC(=O)Nc1ccc(Oc2ncnc3[nH]ncc23)c(Cl)c1 [4a-32, 1-(4-((1H-pyrazolopyrimidine-4-yl)oxy)-3-chlorphenyl)-3-(3-tert-butyl-1-methylpyrazol-5-yl)urea] | 
< 50 µM | 0.0146 nM |  |  |  |  |  |  |  |  | CC(C)(C)c1cc(NC(=O)Nc2ccc(Oc3ncnc4[nH]ncc34)cc2)n(C(=O)O)n1 [4a-58] | weight loss, rash, diarrhea and other adverse reactions during administration ([11]; NOD-SCID mice, 3 and 10 mg/kg q.d. oral): not found; in vivo tumor growth inhibition effect ([11]; daily dose of 3 mg/kg or above, oral, MV4-11 tumors more than 2000 mm^3 at start): completely inhibit tumor growth
< 50 µM | 0.00984 nM |  |  |  |  |  |  |  |  | CC(C)(C)c1cc(NC(=O)Nc2ccc(Oc3ncnc4[nH]ncc34)c(F)c2)n(C(=O)O)n1 [4a-59] | 
